Key:
Ba/F3 cells = assay: Tumor cell growth inhibition test (CCK8 detection), Ba/F3; format: cell-based, mouse
Protocol: (§1) Growth Inhibition Test of the Series of Compounds on Various Tumor Cells (CCK8 Detection)
(1) Ba/F3 mouse IL-3 dependent pro-B lymphocyte cell line, RPMI 1640+10% FBS+10 ng/ml Interleukin-3+1% Sodium Pyruvate;
(§2) (1) Cell culture • a) Cells in logarithmic growth phase were collected, counted, and re-suspended in a complete medium. • b) The cell concentration was adjusted to an appropriate concentration, and inoculated into a 96-well plate in an amount of 100 μl of cell suspension per well. • c) The cells were incubated for 24 hrs in an incubator at 37° C. with 100% relative humidity and 5% CO2.
(§3) (2) Test of relative inhibition rate • 1) Cells in logarithmic growth phase were collected, counted, and re-suspended in a complete medium. The cell concentration was adjusted to an appropriate concentration (determined according to the optimal test result of cell density), and inoculated into a 96-well plate in an amount of 100 μl of cell suspension per well. The cells were incubated for 24 hrs in an incubator at 37° C. with 100% relative humidity and 5% CO2. • 2) The compound to be tested was diluted with the medium to the corresponding action concentration, and […] were added in an amount of 25 µl/well.
(§4) The IC50 curve was fitted using the software Graphpad Prism 5 and using the calculation formula log(inhibitor) vs response and the IC50 value was calculated.

Karpas 299 cells = assay: Tumor cell growth inhibition test (CCK8 detection), Karpas 299; format: cell-based, human
Protocol: as §1
(2) Karpas 299 human T lymphoma cell line, RPMI 1640+10% FBS+1% Sodium Pyruvate;
as §2, §3, §4

NCI-H2228 cells = assay: Tumor cell growth inhibition test (CCK8 detection), NCI-H2228; format: cell-based, human
Protocol: as §1
(3) NCI-H2228 human non-small cell lung cancer cell line, RPMI 1640+10% FBS+1% Sodium Pyruvate;
as §2, §3, §4

NCI-H3122 cells = assay: Tumor cell growth inhibition test (CCK8 detection), NCI-H3122; format: cell-based, human
Protocol: as §1
(4) NCI-H3122 human lung cancer cell line, RPMI 1640+10% FBS+1% Sodium Pyruvate;
as §2, §3, §4

ALK enzyme = ALK enzyme (Homo sapiens, UniProt Q9UM73); assay: In-vitro ALK kinase inhibitory activity (HTRF kinEASE TK kit); format: biochemical; conditions: inhibitory activity for ALK enzyme, read-out: IC50 range
Chain of ALK enzyme (Q9UM73 19-1620 limits assumed): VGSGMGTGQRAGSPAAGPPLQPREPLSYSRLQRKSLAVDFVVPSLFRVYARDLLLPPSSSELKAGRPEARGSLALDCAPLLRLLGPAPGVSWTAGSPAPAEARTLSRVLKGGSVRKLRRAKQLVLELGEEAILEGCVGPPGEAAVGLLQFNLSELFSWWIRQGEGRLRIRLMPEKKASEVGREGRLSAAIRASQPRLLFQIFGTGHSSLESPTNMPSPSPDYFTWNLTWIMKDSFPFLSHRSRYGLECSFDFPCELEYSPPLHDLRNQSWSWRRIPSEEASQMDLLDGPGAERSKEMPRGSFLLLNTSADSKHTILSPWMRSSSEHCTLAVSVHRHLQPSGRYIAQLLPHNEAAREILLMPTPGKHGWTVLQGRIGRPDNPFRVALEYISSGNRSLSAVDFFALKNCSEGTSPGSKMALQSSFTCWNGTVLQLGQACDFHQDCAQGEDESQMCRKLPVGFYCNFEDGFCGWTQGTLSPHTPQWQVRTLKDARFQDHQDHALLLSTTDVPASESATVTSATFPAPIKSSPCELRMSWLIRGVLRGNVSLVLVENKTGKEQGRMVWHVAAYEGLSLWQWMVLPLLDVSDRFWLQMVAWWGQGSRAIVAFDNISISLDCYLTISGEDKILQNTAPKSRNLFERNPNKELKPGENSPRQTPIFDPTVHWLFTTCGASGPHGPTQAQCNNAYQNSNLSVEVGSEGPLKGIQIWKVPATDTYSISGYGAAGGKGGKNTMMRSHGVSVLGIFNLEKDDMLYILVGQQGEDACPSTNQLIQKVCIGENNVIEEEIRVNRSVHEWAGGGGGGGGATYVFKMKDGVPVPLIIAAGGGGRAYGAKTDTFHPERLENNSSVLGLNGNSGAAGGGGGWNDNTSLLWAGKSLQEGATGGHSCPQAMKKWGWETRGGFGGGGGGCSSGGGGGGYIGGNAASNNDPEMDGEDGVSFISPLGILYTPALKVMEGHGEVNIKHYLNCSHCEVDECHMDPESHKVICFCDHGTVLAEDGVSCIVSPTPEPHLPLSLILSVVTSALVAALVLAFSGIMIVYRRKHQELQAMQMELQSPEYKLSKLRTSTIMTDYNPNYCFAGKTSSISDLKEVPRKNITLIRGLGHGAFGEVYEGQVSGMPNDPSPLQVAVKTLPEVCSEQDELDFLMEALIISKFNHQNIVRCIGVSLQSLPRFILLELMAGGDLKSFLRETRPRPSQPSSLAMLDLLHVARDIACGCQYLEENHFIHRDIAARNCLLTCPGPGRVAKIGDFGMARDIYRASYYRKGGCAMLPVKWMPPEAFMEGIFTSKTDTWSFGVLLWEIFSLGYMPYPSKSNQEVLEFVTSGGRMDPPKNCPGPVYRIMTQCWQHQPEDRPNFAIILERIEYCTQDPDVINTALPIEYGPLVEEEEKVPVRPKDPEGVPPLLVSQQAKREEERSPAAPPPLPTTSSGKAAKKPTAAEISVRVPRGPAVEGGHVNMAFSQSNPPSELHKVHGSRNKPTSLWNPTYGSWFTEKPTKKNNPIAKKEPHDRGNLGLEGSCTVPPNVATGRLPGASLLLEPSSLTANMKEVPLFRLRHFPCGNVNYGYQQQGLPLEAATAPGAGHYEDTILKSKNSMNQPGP
Protocol: Anaplastic Lymphoma Kinase (ALK) Inhibitory Activity The in-vitro kinase assay was performed using the HTRF kinEASE TK kit available from Cisbio. The operation steps are indicated in the instructions of the kit. This method was used to detect the inhibitory effect of the compound to be tested on the activity of ALK enzymes in vitro, including wild-type ALK (Cat.PV3867, Invitrogen), ALK L1196M (Cat. PV6168, Life technologies), and ALK F1174L (Cat. PV6160, Life technologies). The specific operation steps were as follows. […] In addition to the control wells, 4 μL of the diluted compound solution to be tested was added to the reaction wells, and 4 μL of the 2.5% DMSO solution corresponding to the ALK enzyme previously formulated was added to the control wells. (2) 2 μL of a TK-biotin substrate solution previously formulated in a substrate concentration corresponding to the ALK enzyme was added to all reaction wells. (3) 2 μL of a previously prepared enzyme solution of corresponding concentration was added to all the reaction wells except the negative wells, and 2 μL of the 1× kinase buffer corresponding to the enzyme was added to the negative wells to make up the volume. The plate was sealed with a membrane, and incubated for 10 min at room temperature after mixing uniformly, such that the compounds were bond to the enzyme fully. (4) 2 μL of an ATP solution in a concentration corresponding to the ALK enzyme was added to all the reaction wells to initiate the kinase reaction, where the enzyme reaction time by ALK was 60 minutes. (5) An ALK test solution was prepared 5 minutes before the end of the kinase reaction. Streptavidin-XL665 and TK antibody europium cryptate (1:100) solutions for assay having a concentration corresponding to the enzyme were prepared using the detection buffer in the kit. (6) After the completion of the kinase reaction, 5 μl of diluted Streptavidin-XL665 was added to all the reaction wells respectively, and mixed uniformly, and then the diluted TK antibody europium cryptate solution for assay was added immediately. (7) The plate was sealed, mixed uniformly and allowed to react at room temperature for 1 h. The fluorescence signal (excitation at 320 nm, and emission at 665 nm and 615 nm) was detected using the ENVISION instrument (Perkinelmer). The inhibition rate for each well was calculated from the values of the fully active wells and the background signal wells. The values of replicated wells were averaged, and the half-maximal inhibitory activity (IC50) of each compound to be tested was fitted with a professional drawing analysis software PRISM 5.0.

[1] = test system: NCI-H2228 nude mice xenografts; assay: In-vivo pharmacodynamic evaluation, NCI-H2228 subcutaneous xenograft; conditions: 14 days, day 21
Protocol: In-Vivo Pharmacodynamic Evaluation
SCID Beige mice, female, 5-6 weeks old, weighed 18+2 g, purchased from Beijing HFK Bioscience Co., Ltd., bred in an SPF level environment.
NCI-H2228 cells were cultured in PRMI-1640 containing 10% fetal bovine serum (FBS) and 1% sodium pyruvate. The cells were cultured in an incubator at 37° C. with 5% CO2.
Establishment of subcutaneous tumor transplantation model in nude mice by cell inoculation: Tumor cells in logarithmic growth phase were collected, counted and re-suspended in PRMI-1640 basal medium. Matrigel was added at a ratio of 1:1, and the concentration of the cell suspension was adjusted to 6×10^7/ml. Tumor cells were subcutaneously inoculated to the right back of nude mice in an amount of 6×10^6/0.1 mL/mouse using a 1 mL syringe (with a […]).
When the tumor volume reached about 200 mm^3, the animals were randomly grouped according to randomized block method, so that the difference in tumor volume of each group was within 10% of the mean. There were 5 groups in total, each having 8 animals. The day of grouping was recorded as Day 0, and the animals were administered immediately after grouping. Compound I-3 of the present invention and Ceritinib were orally administered once a day for consecutive 14 days, and then observed for 7 days. The weight and tumor size of the animals were measured twice a week during the experiment. The clinical symptoms were observed and recorded daily. After the animals were weighed for the last time on Day 21, they were sacrificed by euthanization with CO2. The tumors were taken, weighed and photographed, and the average tumor size was calculated, to investigate the growth inhibitory effect of the test substance Compound I-3 on human lung cancer NCI-H2228 nude mice xenografts under the experimental conditions.
When the tumor in the tumor-bearing mice grew to a measurable size, the mice were randomly divided into 5 groups according to the principle of equal mean tumor volume using SPSS 17.0 software. Compound I-3 was administered by intragastric administration at a dosage of 30, 10, and 3 mg/kg per day. The positive control ceritinib was administered by intragastric administration at a dose of 10 mg/kg per day in a volume of 0.1 ml/10 g. These agents were administered once a day for consecutive 14 days. The animals in the negative control group were given an equal amount of solvent (1% DMSO in physiological saline). During the administration and recovery periods, the body weight and tumor size of the mice were measured 2-3 times per week. The tumor volume and relative tumor volume were calculated based on the measured data. The tumor volume (TV) was calculated by a formula below: TV=1/2×a×b^2, where a and b represent the major and minor diameters of the tumor, respectively. According to the measurement results, the relative tumor volume (RTV) was calculated, by a formula below: RTV=Vt/V0, where V0 is the tumor volume at the start of the experiment, and Vt is the tumor volume measured each time.

`[2H]C([2H])([2H])C([2H])(Oc1cc(C2CCNCC2)c(C)cc1Nc1ncc(Cl)c(Nc2ccccc2S(=O)(=O)C(C)C)n1)C([2H])([2H])[2H]` showed an IC50 (Ba/F3 cells; Mus musculus, BaF3, 72 hrs) of 2890 nM, an IC50 (Karpas 299 cells; Homo sapiens, KARPAS-299, 72 hrs) of 45.7 nM and an IC50 (NCI-H2228 cells; Homo sapiens, NCI-H2228, 72 hrs) of 111 nM. For the same compound, the IC50 (NCI-H3122 cells; Homo sapiens, NCI-H3122, 72 hrs) was 28.4 nM.

With “5-chloro-N2-(2-D6-ethoxy-5-methyl-4-(piperidin-4-yl)phenyl)-N4-(2-(isopr opylsulfonyl)phenyl))pyrimidin-2,4-diamine [Compound I-14]” the IC50 (ALK enzyme) was 1 to 10 nM, the IC50 (Ba/F3 cells; 72 hrs) was 1990 nM and the IC50 (Karpas 299 cells; 72 hrs) was 5.23 nM. It also gave an IC50 (NCI-H2228 cells; 72 hrs) of 45.5 nM and an IC50 (NCI-H3122 cells; 72 hrs) of 6.09 nM.

With `[2H]C([2H])([2H])Oc1cc(C2CCNCC2)c(C)cc1Nc1ncc(Cl)c(Nc2ccccc2S(=O)(=O)C(C)C)n1` [Compound I-3, 5-chloro-N4-(2-(isopropylsulfonyl)phenyl)-N2-(2-D3-methoxy-5-methyl-4-(piperidin-4-yl)phenyl)pyrimidin-2,4-diamine] the “IR (%)” value ([1]; 3 mg/kg qd intragastric) was 12.86%, the “RTV d21” value ([1]; 3 mg/kg qd intragastric) was 3.12 ± 0.23 and the “T/C (%)” value ([1]; 3 mg/kg qd intragastric) was 77.45%. For the same compound, the “IR (%)” value ([1]; 10 mg/kg qd intragastric) was 53.39%, the “RTV d21” value ([1]; 10 mg/kg qd intragastric) was 1.70 ± 0.20 and the “T/C (%)” value ([1]; 10 mg/kg qd intragastric) was 45.33%. For the same compound, the “IR (%)” value ([1]; 30 mg/kg qd intragastric) was 77.14%, the “RTV d21” value ([1]; 30 mg/kg qd intragastric) was 0.79 ± 0.17 and the “T/C (%)” value ([1]; 30 mg/kg qd intragastric) was 21.07%.

Work on `COc1cc(C2CCNCC2)c(C)cc1Nc1nc(Nc2ccccc2S(=O)(=O)C(C)C)c2[nH]ccc2n1` [Compound I-31, N4-(2-(isopropylsulfonyl)phenyl)-N2-(2-D3-methoxy-5-methyl-4-(piperidin-4-yl)phenyl)-5H-pyrrolo[3,2-d]pyrimidin-2,4-diamine] yielded an IC50 (ALK enzyme) of 10 to 100 nM.

`COc1cc(C2CCNCC2)c(C)cc1Nc1nc(Nc2ccccc2S(=O)(=O)C(C)C)c2ccsc2n1` [Compound I-32, N4-(2-(isopropylsulfonyl)phenyl)-N2-(2-D3-methoxy-5-methyl-4-(piperidin-4-yl)phenyl)thieno[2,3-d]pyrimidin-2,4-diamine] gave an IC50 (ALK enzyme) of 10 to 100 nM.

`COc1cc(N2CCC(N3CCSCC3)CC2)ccc1Nc1ncc(Cl)c(Nc2ccccc2S(=O)(=O)C(C)C)n1` [Compound I-33, 5-chloro-N4-(2-(isopropylsulfonyl)phenyl)-N2-(2-D3-methoxy-4-(4-thiomorpholinopiperidin-1-yl)phenyl)pyrimidin-2,4-diamine] showed an IC50 (ALK enzyme) of 1 to 10 nM.

`COc1cc(N2CCC(N3CCC(N)CC3)CC2)ccc1Nc1ncc(Cl)c(Nc2ccccc2S(=O)(=O)C(C)C)n1` [Compound I-34, N2-(4-(4-amino-[1,4′-bipyridin]-1′-yl)-2-D3-methoxyphenyl)-5-chloro-N4-(2-(isopropylsulfonyl)phenyl)pyrimidin-2,4-diamine] gave an IC50 (ALK enzyme) of 1 to 10 nM.

`COc1cc(N2CCC(N3CCOCC3)CC2)ccc1Nc1ncc(Cl)c(Nc2ccccc2S(=O)(=O)C(C)C)n1` [Compound I-35, 5-chloro-N4-(2-(isopropylsulfonyl)phenyl)-N2-(2-D3-methoxy-4-(4-morpholinopiperidin-1-yl)phenyl)pyrimidin-2,4-diamine] showed an IC50 (ALK enzyme) of 1 to 10 nM.

In the case of `COc1cc(N2CCC(N(C)C)CC2)ccc1Nc1ncc(Cl)c(Nc2ccccc2P(C)(C)=O)n1` [Compound I-37, (2-((5-chloro-2-((4-(4-(dimethylamino)piperidin-1-yl)-2-D3-methoxyphenyl)amino)pyrimidin-4-yl)amino)phenyl)dimethylphosphorus oxide], the IC50 (ALK enzyme) is reported as 1 to 10 nM.

`COc1cc(C2CCNCC2)c(C)cc1Nc1ncc(Cl)c(Nc2ccccc2P(C)(C)=O)n1` [Compound I-38, 5-chloro-N4-(2-(dimethylphosphoryl)phenyl)-N2-(2-D3-methoxy-5-methyl-4-(piperidin-4-yl)phenyl)pyrimidin-2,4-diamine] showed an IC50 (ALK enzyme) of 1 to 10 nM.

Compound `COc1cc(C2CCNCC2)ccc1Nc1ncnc(Nc2ccccc2S(=O)(=O)C(C)C)n1` [Compound I-39, N2-(2-(isopropylsulfonyl)phenyl)-N4-(2-D3-methoxy-4-(4-piperidin-4-yl)phenyl)-1,3,5-triazin-2,4-diamine] has an IC50 (ALK enzyme) of 1 to 10 nM.

Work on `COc1cc(C2CCNCC2)c(C)cc1Nc1ncnc(Nc2ccccc2S(=O)(=O)C(C)C)n1` [Compound I-40, N2-(2-(isopropylsulfonyl)phenyl)-N4-(2-D3-methoxy-5-methyl-4-(piperidin-4-yl)phenyl)-1,3,5-triazin-2,4-diamine] yielded an IC50 (ALK enzyme) of 1 to 10 nM.

With `COc1cc(N2CCNCC2)ccc1Nc1ncnc(Nc2ccccc2S(=O)(=O)C(C)C)n1` [Compound I-41, N2-(2-D3-methoxy-4-(piperazin-1-yl)phenyl)-N4-(2-(isopropylsulfonyl)phenyl)-1,3,5-triazin-2,4-diamine] the IC50 (ALK enzyme) was 1 to 10 nM.

`COc1cc(N2CCNCC2)c(C)cc1Nc1ncnc(Nc2ccccc2S(=O)(=O)C(C)C)n1` [Compound I-42, N2-(2-D3-methoxy-4-(piperazin-1-yl)-5-methyl-phenyl)-N4-(2-(isopropylsulfonyl)phenyl)-1,3,5-triazin-2,4-diamine] was tested, and the IC50 (ALK enzyme) was 1 to 10 nM.

With `COc1cc(N2CCC(N3CCN(C)CC3)CC2)ccc1Nc1ncnc(Nc2ccccc2S(=O)(=O)C(C)C)n1` [Compound I-43, N2-(2-(isopropylsulfonyl)phenyl)-N4-(2-D3-methoxy-4-(4-(4-methylpiperazin-1-yl)piperidin-1-yl)phenyl)-1,3,5-triazin-2,4-diamine] the IC50 (ALK enzyme) was 1 to 10 nM.
